Test results from patent US20070275091A1, “Compositions And Methods For Improved Mucus Function” (priority 2004, published 2007).
Entries after “also recorded” stand apart in the source; their conditions may differ.

Experiments:
[1] = system: frog palate mucociliary clearance; assay: Frog palate mucociliary transport, agent applied topically; set-up: species or system Rana catesbiana
Protocol: (§1) The displacement of a 1-5 μL of endogenous frog mucus sample is timed as the trailing edge moves across a predetermined segment. MTV is calculated by dividing the distance traveled by the time elapsed, based on at least five measurements of the time required for the mucus sample to travel the defined distance (3).
In FIG. 4A, the effect of a mucomodulating agent (CaCl2) on mucociliary transport time is shown compared to Frog Ringers (FR) solution. Both solutions (FR and CaCl2) were applied topically to the palate in a volume of 5 μL. Thirty seconds were allowed for dispersion of the agent on the palate, followed by the measurement of mucociliary transport time. A droplet of mucus from the palate was placed on palate toward the mouth opening. Ciliary action transported the droplet down the palate. The measurement process (timing the movement of the droplet down the palate over a set distance of 4 mm as observed through a stereomicroscope with a reticulated eyepiece) was repeated five times and averaged to give a mean transport time for each solution.
As described above, mucomodulator solutions were applied topically to the palate in a volume of 5 μl. After 30 seconds to allow dispersion of the agent on the palate, measurements of mucociliary transport time were taken. None of the agents tested on the frog palate had any significant effect on mucociliary clearance until the highest delivered concentrations. Variations at low concentrations were due to variations in baseline frog palate mucociliary activity.

[2] = Simulated cough machine, expectoration of mucus simulant
From the text: The simulated cough machine system comprises the following elements: A 10-L tank with compressed air, which serves as a pressure reservoir that generates airflow, simulating the lungs during a cough maneuver. The pressure generated prior to a normal adult cough is approximately 8 psi pressure. This pressure value was used to simulate the airflow pattern of a human cough for each trial.
The model “trachea” is a 28 cm long rigid acrylic tube with a circular 2.5 cm cross-section. It has an 8 cm removable portion to allow us to measure the weight of the sample of mucus simulant loaded before and immediately after each “cough” maneuver. A solenoid valve located between the pressure reservoir and the model trachea control the gas released from the tank.
An aliquot of sputum or mucus simulant is layered on the bottom of the model trachea and driven forward by the pressurized gas. […] Displacement of the MS sample loaded, expressed in millimeters, is measured from the initial placement to the farthest point with a visible bulk concentration of mucus. […]
Mucus simulants (MS) were exposed to airflow in a simulated cough machine (SCM). […] Mucociliary clearance of the MS was assessed on the frog palate (FIG. 5A), elasticity in the Filancemeter (FIG. 6A) and the aerosol pattern in a “bulls-eye” target (FIG. 6B). […]

[3] = Filancemeter spinnability of mucus simulant; assay type: physicochemical; settings: model studies using vegetable polysaccharides
Protocol: (§2) Mucus simulants (MS) were exposed to airflow in a simulated cough machine (SCM). The MS ranged from non-viscous, non-elastic substances (water—control) to MS of varying degrees of viscosity and elasticity. Mucin crosslinking was increased by adding sodium tetraborate (mucomodulator B) to viscous solutions of locust bean gum (Sigma). Mucociliary clearance of the MS was assessed on the frog palate (FIG. 5A), elasticity in the Filancemeter (FIG. 6A) and the aerosol pattern in a “bulls-eye” target (FIG. 6B). The sample loaded was weighed before and after each cough maneuver to achieve a measure of expectoration (FIG. 5B).

[4] = system: frog palate epithelial model; assay: Mucociliary clearance of borate-treated mucus simulant on frog palate; set-up: species or system Rana catesbiana; settings: control native frog palate mucus 24 mm/min
Protocol: as §1, §2

[5] = system: tracheal mucociliary clearance; assay: Tracheal mucus velocity in anesthetized dogs; assay type: in vivo; settings: for TMV: 7 mL over 20 min, jet nebulizer; for thread formation capability (a measure of elasticity) of the tracheal mucus: after aerosol exposure, not in sham or saline
Protocol: The mucomodulator aerosols were delivered to the intubated, spontaneously breathing dogs by jet nebulizer aerosol (7 mL over 20 min). Three aerosol concentrations were delivered: Low=0.001M; Med 0.01M; High=0.1M.
The following was assessed: cardio-respiratory pattern, tracheal mucus clearance, airway patency, and mucus viscoelasticity changes.

[6] = Aerosol pattern on bulls-eye target, simulated cough machine; settings: increasing amounts added, 1.5 μL to 150 μL
Protocol: as §2

[7] = system: mucus from the frog palate; settings: 5 μL of 0.1 M solution applied topically
From the text: From a bullfrog, Rana catesbiana, the upper portion of the head is removed modifying the procedures described in previous works. This is done by pithing the frog after lowering the body temperature to abolish pain sensation, and then cutting with scissors through from the junction of the posterior pharynx and esophagus out to the skin of the back. The palate is checked for macroscopic lesions, such as ulcers, or evidence of inflammation. The palate is then placed inside the frog chamber, a wooden box with a glass top and fitted glass front and manipulated through glove openings, and viewed under a dissecting stereomicroscope provided with a reticulated eyepiece. Humidity inside the box is maintained at 100% using a Pari nebulizer; the box is maintained at room temperature (22° to 24° C.). Before carrying out any measurement, the palate is allowed to stabilize inside the box for 15 minutes.
Samples of mucus and tissue are placed in 2.5% glutaraldehyde solution immediately after collection and stored at 4° C. until processing. Briefly, the samples are post-fixed in 1% osmium tetroxide in Millonig's buffer at room temperature for one hour. They are then washed briefly in a series of ethanol (50-100%), ten minutes at each step, followed by two additional periods of absolute ethanol (10 minutes each). […]

**Q.** For polymyxin B [reference compound], which mucociliary clearance ([1]; 5 μl topical, highest concentration) is on record?
**A.** sustained decrease

**Q.** What about the mucociliary clearance ([1]; 5 μl topical, intermediate concentration) of the same compound?
**A.** increase

**Q.** With poly-L-arginine [Mucomodulator A] as the compound, how does the mucociliary clearance rate ([1]; 5 μl topical, 10^-8 to 10^-1 M, increasing applied concentration) read?
**A.** significant increase

**Q.** Which “amount of MS expelled from the SCM” value ([2]; 1.5 μL added) does the source give for `[Na+].[Na+].[O-]B1OB2OB([O-])OB(O1)O2` [XL “B”, sodium tetraborate] here?
**A.** 47%

**Q.** And the “amount of MS expelled from the SCM” value ([2]; 150 μL added)?
**A.** 96%

**Q.** What about the “elasticity relative to viscosity” value [3] of the same compound?
**A.** preferentially raises elasticity relative to viscosity

**Q.** What about the “mucociliary transport rate of treated mucus simulants (means)” value [4] of the same compound?
**A.** 16-20 mm/min

**Q.** And the TMV ([5]; High = 0.1M aerosol)?
**A.** 4.3 ± 1.53 mm/min

**Q.** And the TMV ([5]; Low = 0.001M aerosol)?
**A.** 3.88 ± 1.66 mm/min

**Q.** What about the TMV ([5]; Med = 0.01M aerosol) of the same compound?
**A.** 4.96 ± 1.99 mm/min

**Q.** What about the “thread formation capability (a measure of elasticity) of the tracheal mucus” value [5] of the same compound?
**A.** increase

**Q.** And the “particles in the aerosolization pattern” value [6]?
**A.** reduced to almost disappear

**Q.** Which results are given for `[Ca+2].[Cl-].[Cl-]` [CaCl2, calcium chloride]?
**A.** mucociliary transport time compared to Frog Ringers ([1]; 5 μL topical, 30 s dispersion, 4 mm distance): no significant effect; also recorded: did not alter the mucus transit time; effect on mucus on the surface of the palate (SE micrograph) [7]: causes “clumping” of the mucus

**Q.** Which TMV ([5]; High = 0.1M aerosol) does the source give for HMW dextran [XL “D”] here?
**A.** 3.85 ± 2.2 mm/min

**Q.** What about the TMV ([5]; Low = 0.001M aerosol) of the same compound?
**A.** 4.43 ± 3.83 mm/min

**Q.** And the TMV ([5]; Med = 0.01M aerosol)?
**A.** 3.77 ± 1.65 mm/min

**Q.** And the “thread formation capability (a measure of elasticity) of the tracheal mucus” value [5]?
**A.** increase
